This note sets out measurements from US20110213236A1, “THERAPEUTIC COMPOSITIONS, DEVICES AND METHODS FOR OBSERVING TREATED TISSUES” (IMMUNOPATH PROFILE, INC., priority 2008, published 2011).

Common to all, as to format: in vivo, human
Series [1] concerns gout. In words: Gout. To be noted: locally added to the transdermal cream. The text has this: This acute musculoskeletal strain and severe foot pain occurred when getting out of bed, and standing with bare feet. The strain was associated with extensive standing and walking without their customary shoe arch support. […] The use of Advil liquid filled capsules solubilized ibuprofen locally added to the transdermal cream expedited the reversal of acute gout after one-two applications.
When used transdermally on all these examples, the permeability was increased with the subsequent use of the heating pad, but in the case of the Gout, it was used at its mildest level. […] In the treatment of Gout, the patient responded first to the Resveratrol enriched transdermal cream as in Example Group 2 locally applied used 3 times daily, with Garlic powder by Oregon Wild Harvest, specially processed, air-dried, and ground with a water-cooled grinding system to avoid generating heat, was sprinkled onto the wound as an anti-fungal agent derived from the cloves and root system of the Garlic plant and serving as a GRAS item to impart the innate immunity found in the defensin adaptogen of the plant, with good success.

Series [2] deals with degenerative osteoarthritis of the knee. In words: Degenerative osteoarthritis of the knee and pulled ligament, lotion. To be noted: 600 mg. The procedure: A dentist was diagnosed with degenerative osteoarthritis of the left knee in 2001, by an orthopedic surgeon at the Henry Ford Health System in Farmington Hillsi Mich. At that time, they were […], and was working 55 hours per week at their dental practice. The orthopedic surgeon advised a complete knee replacement since the joint space was minimal as per the M.Rt. The meniscus had worn away from athletics and job requirements. The option was chosen of using occasional steroid injections in times of severe inflammation along with the daily use of Celebrex until they could no longer function, rather than have such an irreversible traumatic operation, at their age. The doctor agreed. Their quality of life was affected as was their comfort during work.
A few years later, the right knee ligaments were starting to weaken resulting in much pain and dysfunction, the now patient's gait was hobbled to a severe limp.
A composition of the subject invention in lotion form was applied twice daily after warming the area with a moist-heat heating pad for a few minutes.
Plans for a knee replacement were put on hold. The patient subsequently suffered a ligament pulled ligament in the groin. The ligament was also treated with the same composition In three days the pain was gone.

Series [3] has as its system atrial fibrillation. In words: Atrial fibrillation patient treated with Cardizem and subject composition. The text has this:
We see the same effect in the remarkable drug, Levodopa, in the treatment of Parkinsonism with the side effects of stroke, heart attack, and substantia nigra, basal ganglia damage. […] The total studies were almost 30,000 in number and BIOMARKERS TISSUE […] AND […] TARGETS FOR CARDIAC […] Cardiac arrhythmia nutritional deficiencies, 496 studies compared with:
Vitamin B1 was cited as the most critical of preventing and reversing arrhythmia in starvation studies. Omega-3 fish oil was shown pre-clinically to be effective in the animal heart studies: after it was digested from and enzymatic release from glycerol was not only shown by Leaf in vitro in the isolated beating animal heart muscle to prevent toxicity effects of toxic chemicals. On our chemical moiety orientated spreadsheet where we listed more than 1,400 studies documenting the efficacy of magnesium.
With complete components listed in the spreadsheet of indicated diseases, giving a more complete list, provides by maximizing and optimizing efficacy and safety in the foregoing subject composition free of undesirable effects not only for the treatment of disease but for averting these undesirable side-effects. […]

As for `CC(C)Cc1ccc(C(C)C(=O)O)cc1` (stereo not drawn) [Advil, ibuprofen], the “applications until reversal of acute gout” value in series [1] is given as “one-two”.
As for `CC(C)Cc1ccc(C(C)C(=O)O)cc1` (stereo not drawn) [Ibuprofen], the “effect on knee pain and dysfunction” value in series [2] is listed as “helpful but not therapeutic”.
With `COc1ccc([C@@H]2Sc3ccccc3N(CCN(C)C)C(=O)[C@@H]2OC(C)=O)cc1` [Cardizem], the “side effects on the second dose” value in series [3] was “pain, inability to walk, and weakness”.
